What all share (format): cell-based, human
The test system of assay [1] is hMSCs. The experiment in a line: Chondrocyte differentiation, collagen accumulation by Sirius red/fast green staining. The following applies: for activation at 5000 µM: Homo sapiens, Chondrocyte, 504 h, read-out: % increase over controls (chondrocyte differentiation); for Absorbance at 540nm, Chondrocyte-differentiated cells: 21 days; for Absorbance at 540nm, Control cells: no differentiation protocol. Here is the method: (§1) Cells at passage 6 were seeded at a density of 2x10^5 (adipogenesis and chondrogenesis) or 3x10^4 (osteogenesis) into wells of a 6 well tissue culture plate. Kits for differentiation along adipogenic, chondrocytic and osteocytic lineages were obtained from Lonza and accompanying protocols followed. Early stage characteristics of differentiation were then assessed. Adipocytes were assayed for fat accumulation after 18 days from the onset of the differentiation protocol. Cells were fixed by incubating for 10 minutes in 10% formalin, followed by 60 minutes in fresh 10% formalin and washing with 60% isopropanol. 5mM Oil red O in 60% isopropanol (filtered), 1ml per well, was added to dry wells and left for 10 minutes before washing four times with water. Oil red O was eluted with 1ml 100% isopropanol per well and the optical density measured at 500nm. Chondrocytes were assayed for collagen accumulation (after 21 days from the onset of the differentiation protocol) using Sirius red/fast green collagen staining kit purchased from Amsbio. Osteocytes were assayed for calcium accumulation (21 days after the onset of the differentiation protocol) by the method of Jager et al, 2005. In each case, values were compared with those of control cells which had been cultured under normal growth conditions without being exposed to differentiation protocols.
Cells were inoculated at a density of 2x10^5 cells/well into 6 well plates and the chondrocyte-differentiation protocol followed (refer to Experimental Procedures for full protocol). After 21 days, cells were fixed with Kahle fixative and stained with Sirius dye. Dye was extracted and the absorbance read at 540nm. n=3 ** p<0.004; *** p<0.0001

Assay [2] relates to hMSCs. Nature of the assay: Osteocyte differentiation, Ca2+ accumulation by cresopthalein. The following applies: for Absorbance at 577nm, Osteocyte-differentiated cells: 21 days; for Absorbance at 577nm, Control cells: no differentiation protocol. On the procedure: as §1
Cells were inoculated at a density of 3x10^4 cells/well into 6 well plates and the osteocyte differentiation protocol followed (refer to Experimental Procedures for full protocol). After 21 days, cells were incubated with 0.6M HCl for 24 hours before calcium per well was measured by complexing with cresopthalein and measuring absorbance at 577nm. C: Absorbance at 540nm for cells treated with Sirius red/fast green dye to measure collagen accumulation.

In assay [3] the test system is hMSCs. The experiment in a line: Substrate oxidation in 24-well plates (14CO2 production from 14C-labelled substrates). The following applies: for increase in substrate-oxidation rate between passage 2 and passage 5: normoxic-cultured cells (20% O2); for oxidation rate relative to glucose (fold higher): normoxic-cultured cells, 10mM acetoacetate vs 5.5mM glucose. Here is the method:
(§2) Cryopreserved cells were thawed, washed with growth medium and seeded at a density of 1 X 10^6 cells per 225cm2 with Dulbecco's Modified Eagle's medium (DMEM) containing 2mM ultra-glutamine, 1g/l glucose, 50µg/ml gentamycin and 10% FBS. Where 3-hydroxybutyrate (3-HB) was included in the growth medium, the concentration was 5mM throughout. Cells were passaged at about 80% confluence. Cells for measurements of glycolysis or oxidation were seeded into 24-well plates at a density of 1 x 10^4 cells per well and used at about 90% confluence. Cells were maintained in either normoxic culture with 20% O2 tension or hypoxic culture with 5% O2 tension in an oxygen-tension controlled incubator. Previous workers have identified 5% O2 as being a physiologically significant level of O2 with respect to in vivo conditions for hMSCs, representing hypoxia (Pattappa et al., 2011).
Cells were incubated for 90 minutes in the presence of a single radiolabelled substrate (with addition of unlabelled substrates where indicated) in DMEM (containing no pyruvate, glucose or glutamine) in a total volume of 0.5 mls. The concentrations of single substrates were: 5.5mM glucose (considered similar to median human blood glucose concentration); 2mM pyruvate (considered higher than endogenous pyruvate concentration from glucose metabolism and sufficient to stimulate activity of pyruvate dehydrogenase plus pyruvate carboxylase); 1mM glutamine (considered similar to human blood glutamine concentrations); 10mM acetoacetate (considered similar to intracellular acetoacetate concentrations produced from maximal blood ketone body concentrations). In addition, substrates incorporated radiolabels as follows: glucose: ^21 MBq/mmol D-U-^14C-glucose; pyruvate: 0.35MBq/mmol 1-^14C-pyruvate; acetoacetate: 0.185MBq/mmol 3-^14C-acetoacetate; glutamine: 1.2 MBq/mmol U-^14C-glutamine. Evolved ^14CO2 was trapped and measured by the method of Collins et al. (1998), except that, after addition of perchloric acid to the wells, plates were gently agitated for 60 minutes to release dissolved ^14CO2. Filter papers containing trapped ^14CO2 were counted in Ecoscint using a Tri-Carb 2800TR Liquid Scintillation Analyser. […] Rates of ATP-production from individual substrates were calculated on the basis of mol/mol production as follows: glucose: 31; glutamine: 20; pyruvate: 12.5; acetoacetate: 20. For calculations of ATP-production from acetoacetate plus pyruvate, separate incubations were performed with ^14C-acetoacetate in the presence of unlabelled pyruvate and with ^14C-pyruvate in the presence of unlabelled acetoacetate. Rates of ATP-production from the labelled substrate were calculated for each condition and the results summed.

In assay [4] the test system is hMSCs. The experiment in a line: Glycolytic rate in 24-well plates (3H2O production from 5-3H-glucose). The note with it: p5 vs p2. Here is the method: as §2
Glycolysis was measured as the production of ^3H2O from 5-^3H-glucose, which occurs during the step catalysed by enolase. Cells were incubated with 5.5mM glucose containing 17 MBq/mmol 5-^3H-glucose in DMEM without pyruvate, glutamine or glucose for 90 minutes in a total volume of 0.5mls. […] Washing with 2 column volumes of water eluted the ^3H2O which was counted for radioactivity (Tri-Carb 2800TR Liquid Scintillation Analyser).

Assay [5] concerns hMSCs. Nature of the assay: Adipocyte differentiation, fat accumulation by oil red O staining. The note with it: for Absorbance of eluate at 500nm, Adipocyte-differentiated cells: 18 days; for Absorbance of eluate at 500nm, Control cells: no differentiation protocol. On the procedure:
as §1
Cells were inoculated at a density of 2x10^5 cells/well into 6 well plates and the adipocyte differentiation protocol followed (refer to Experimental Procedures for full protocol). After 18 days, medium was removed from wells and cells stained with oil red O. The dye was eluted from the cells and the absorbance of the eluate read at 500 nm. B: Absorbance at 577nm for cells treated with cresopthalein to measure Ca2+ accumulation.

Assay [6] has as its system hMSCs. Nature of the assay: cells. The note with it: for ROS generated per mole of substrate oxidised: 90 minutes incubation with 5.5mM glucose or 10mM acetoacetate, normoxic-cultured cells, passage 5; for fold induction at 20 µM: Homo sapiens, 24 h, 24h pre-incubation with 20µM genipin, passage 5, normoxic. Here is the method: Cells were incubated under appropriate conditions in 24-well plates in a total volume of 0.2ml for 90 minutes. At 90 minutes, ROS were assayed using an Oxiselect Amplex Red kit from Cell Biolabs, Inc., according to the manufacturer's instructions. Where genipin was used, cells were pre-incubated for 24 hours with 20 µM genipin.

The subject of assay [7] is hMSCs. Nature of the assay: Calculated rates of ATP-production from substrate oxidation and glycolysis. The following applies: full oxidation assumed; passage 2, normoxic-cultured cells. Here is the method: Cells were incubated for 90 minutes in the presence of a single radiolabelled substrate (with addition of unlabelled substrates where indicated) in DMEM (containing no pyruvate, glucose or glutamine) in a total volume of 0.5 mls. […] Evolved ^14CO2 was trapped and measured by the method of Collins et al. (1998), except that, after addition of perchloric acid to the wells, plates were gently agitated for 60 minutes to release dissolved ^14CO2. Filter papers containing trapped ^14CO2 were counted in Ecoscint using a Tri-Carb 2800TR Liquid Scintillation Analyser. […] Rates of ATP-production from individual substrates were calculated on the basis of mol/mol production as follows: glucose: 31; glutamine: 20; pyruvate: 12.5; acetoacetate: 20. […] Rates of ATP-production from the labelled substrate were calculated for each condition and the results summed.
ATP-yields were calculated from the following values, as follows: from glycolysis of glucose, it is assumed that 2 moles ATP will be produced per mole glucose glycolysed. […]

Where [8] appears, read: normoxic cells cultured with 5mM 3-HB from passages 1 to 5.

Where two headings read alike, the source gives them in different places.

Here are results for six compounds from patent EP3358006A1, “METHOD AND MEDIUM FOR CULTIVATING PRIMARY CELLS IN VITRO” (Mares Ltd., priority 2017, dated 2018).

As for `CC(O)CC(=O)O` (stereo not drawn) [3-HB, 3-hydroxybutyrate], in the assay on hMSCs [1] (Hypoxia + 5mM 3-HB), the activation at 5000 µM is 45%; the “Absorbance at 540nm, Chondrocyte-differentiated cells” value was “** 0.806 ± 0.024”; the “Absorbance at 540nm, Control cells” value worked out at 0.556 ± 0.008. For the same compound, in the assay with hMSCs [1] (Normoxia + 5mM 3-HB), the activation at 5000 µM was 178%; the “Absorbance at 540nm, Chondrocyte-differentiated cells” value is on record as “*** 0.887 ± 0.020”; the “Absorbance at 540nm, Control cells” value is 0.319 ± 0.004. In addition, in the assay on hMSCs [2] (Hypoxia + 5mM 3-HB), the “% increase over control (osteocyte differentiation)” value is 36%; the “Absorbance at 577nm, Osteocyte-differentiated cells” value is “*** 0.495 ± 0.007”; the “Absorbance at 577nm, Control cells” value is given as 0.363 ± 0.003. In the assay on hMSCs [2] (Normoxia + 5mM 3-HB), the “% increase over control (osteocyte differentiation)” value worked out at 21%; the “Absorbance at 577nm, Osteocyte-differentiated cells” value is “*** 0.375 ± 0.003”; the “Absorbance at 577nm, Control cells” value is 0.310 ± 0.001. Besides, in the assay on hMSCs [3] (setting [8]), the “increase in glucose oxidation rate at passage 5” value is listed as 7.5 fold and the “reduction of acetoacetate oxidation rate at passage 5” value was found to be 1.3 fold. Also, the “decrease in glycolytic rates by passage 5” value in the assay with hMSCs [4] (cells cultured under hypoxia with 5mM 3-HB) is 1.5 fold. The “increase in glycolytic rate at p5” value in the assay on hMSCs [4] (normoxic cells cultured with 5mM 3-HB) is 1.4 fold. For the same compound, in the assay on hMSCs [5] (Hypoxia + 5mM 3-HB), the “% increase over control (adipocyte differentiation)” value is reported as 27%; the “Absorbance of eluate at 500nm, Adipocyte-differentiated cells” value is “*** 0.727 ± 0.001”; the “Absorbance of eluate at 500nm, Control cells” value is reported as 0.570 ± 0.001. For the same compound, in the assay with hMSCs [5] (Normoxia + 5mM 3-HB), the “% increase over control (adipocyte differentiation)” value turned out to be 34%; the “Absorbance of eluate at 500nm, Adipocyte-differentiated cells” value was “*** 0.698 ±0.005”; the “Absorbance of eluate at 500nm, Control cells” value was determined as 0.520 ± 0.006.

Regarding `CC(=O)CC(=O)O` [acetoacetate], the “ROS generated per mole of substrate oxidised” value with hMSCs [6] is reported as 0.0017 moles of ROS. Also, the “difference in ROS generation per mole substrate oxidised, compared with glucose” value in the assay with hMSCs [6] (acetoacetate lower than glucose) was determined as 4.5 fold. Besides, in the assay with hMSCs [3], the “increase in substrate-oxidation rate between passage 2 and passage 5” value was found to be 3.5 fold. Besides, the “oxidation rate relative to glucose (fold higher)” value in the assay with hMSCs [3] (passage 2) stood at 25 fold; with hMSCs [3] (passage 5) it was 42 fold.

For the compound `COC(=O)C1=CO[C@@H](O)[C@@H]2C(CO)=CC[C@H]12` [genipin], the fold induction at 20 µM turned out to be 2 in the assay with hMSCs [6] (read-out: increase in ROS-production, acetoacetate substrate (10mM)) and 1.6 with hMSCs [6] (read-out: increase in ROS-production, glucose substrate (5.5mM)).

Take `OC[C@H]1OC(O)[C@H](O)[C@@H](O)[C@@H]1O` (stereo partly drawn) [glucose, reference compound]: the “ROS generated per mole of substrate oxidised” value in the assay on hMSCs [6] was 0.076 moles of ROS. The “ATP produced compared with acetoacetate alone (times less)” value with hMSCs [7] was 16 times less. Moreover, the “reduction of rate of acetoacetate-oxidation by added substrate” value with hMSCs [3] (10mM acetoacetate plus unlabelled 5.5mM glucose, passage 2, normoxic-cultured cells) is “more than 3 fold”. Moreover, the “increase in substrate-oxidation rate between passage 2 and passage 5” value in the assay with hMSCs [3] is on record as 2 fold.

As for `NC(=O)CC[C@H](N)C(=O)O` [glutamine, reference compound], in the assay on hMSCs [7], the “ATP produced compared with acetoacetate alone (times less)” value is on record as 33 times less. Further, the “increase in substrate-oxidation rate between passage 2 and passage 5” value with hMSCs [3] is “not significantly different”.

In the case of `O=C(O)CC(O)C(=O)O` (stereo not drawn) [malate, reference compound], the “effect of added substrate on rates of pyruvate oxidation” value in the assay on hMSCs [3] (data not shown) is listed as “no significant effect”.
